Data as given in ChEMBL document CHEMBL1157929, “Thioether benzenesulfonamide inhibitors of carbonic anhydrases II and IV: structure-based drug design, synthesis, and biological evaluation” (Bioorg Med Chem, 2010).
Values after ≈ are worked out from the molar mass of the structure shown.

Experiments:
[1] = Solubility at pH 6.5 after 24 hrs by chemiluminescence assay; format: physicochemical; conditions: buffer
physchem = conditions: buffer, pH 6.5

Row | solubility at 24 h [1] | solubility thermodynamic at 4 h (physchem) | Structure (SMILES)
1 | 118 µM (≈ 39.8 µg/mL) |  | CCNC(=O)c1cc(S(N)(=O)=O)cnc1Sc1ccccc1
2 | 40.9 µM (≈ 17.1 µg/mL) |  | COCCCNC(=O)c1cc(S(N)(=O)=O)cnc1Sc1ccc(F)c(F)c1
3 | < 22.2 µM |  | NS(=O)(=O)c1cnc(Sc2ccccc2)c(C(=O)NCCc2ccccc2)c1
4 | < 19.9 µM |  | COc1ccc(CNC(=O)c2cc(S(N)(=O)=O)cnc2Sc2ccc(F)c(F)c2)cc1
5 | 89.6 µM (≈ 35.8 µg/mL) |  | COCCCNC(=O)c1cc(S(N)(=O)=O)cnc1Sc1cccc(F)c1
6 | 211 µM (≈ 102 µg/mL) |  | NS(=O)(=O)c1ccc(Sc2c(F)c(F)cc(F)c2F)c(C(=O)NCCc2ccccn2)c1
7 | 449 µM (≈ 161 µg/mL) |  | CCNCc1cc(S(N)(=O)=O)cnc1Sc1ccc(F)c(F)c1
8 | 497 µM (≈ 201 µg/mL) |  | COCCCNCc1cc(S(N)(=O)=O)cnc1Sc1ccc(F)c(F)c1
9 | 553 µM (≈ 185 µg/mL) | 395 µM (≈ 132 µg/mL) | CCNC(=O)c1cc(S(N)(=O)=O)cc(F)c1SCC(C)C
10 | 558 µM (≈ 189 µg/mL) | 231 µM (≈ 78.1 µg/mL) | NS(=O)(=O)c1ccc(Sc2c(F)c(F)cc(F)c2F)nc1
11 | > 275 µM |  | NS(=O)(=O)c1ccc(Sc2ccccc2)c(C(=O)NCc2ccccn2)c1
12 | > 304 µM |  | COCCNC(=O)c1cc(S(N)(=O)=O)ccc1SCCc1ccccc1
13 | 689 µM (≈ 228 µg/mL) |  | CC(C)CNC(=O)c1cc(S(N)(=O)=O)ccc1SC(C)C
14 | 628 µM (≈ 206 µg/mL) |  | CCNC(=O)c1cc(S(N)(=O)=O)ccc1SC1CCCC1
15 | 205 µM (≈ 69 µg/mL) |  | CCNC(=O)c1cc(S(N)(=O)=O)ccc1Sc1ccccc1
16 | 28.5 µM (≈ 10.9 µg/mL) |  | NS(=O)(=O)c1ccc(Oc2ccccc2)c(C(=O)NCc2ccccc2)c1

Row | solubility at 24 h [1] | solubility thermodynamic at 4 h (physchem) | Structure (SMILES)
17 | < 24.2 µM |  | NS(=O)(=O)c1ccc(SCc2ccccc2)c(C(=O)NCc2ccccc2)c1
18 | > 258 µM |  | NS(=O)(=O)c1ccc(Sc2ccccc2CO)c(C(=O)NCc2ccccn2)c1
19 | > 253 µM |  | NS(=O)(=O)c1ccc(Sc2ccccn2)c(C(=O)NCc2ccccn2)c1
20 | 43.2 µM (≈ 15.4 µg/mL) |  | CCNC(=O)c1cc(S(N)(=O)=O)cnc1Sc1cccc(F)c1
21 | < 25.1 µM |  | NS(=O)(=O)c1ccc(Sc2ccccc2)c(C(=O)NCc2ccccc2)c1
22 | 55.9 µM (≈ 24.1 µg/mL) |  | NS(=O)(=O)c1ccc(S(=O)(=O)c2ccccc2)c(C(=O)NCc2ccccc2)c1
23 | > 353 µM |  | NS(=O)(=O)c1cnc(Sc2ccc(F)c(F)c2)c(CO)c1
24 | > 265 µM |  | CN(C)CCNC(=O)c1cc(S(N)(=O)=O)cnc1Sc1ccccc1
25 | 35.6 µM (≈ 13.1 µg/mL) |  | COCCNC(=O)c1cc(S(N)(=O)=O)cnc1Sc1ccccc1
26 | < 21.2 µM |  | NS(=O)(=O)c1cnc(Sc2c(F)c(F)cc(F)c2F)c(C(=O)NCc2ccccn2)c1
27 | 498 µM (≈ 160 µg/mL) |  | CCNC(=O)c1cc(S(N)(=O)=O)cc(F)c1SC(C)C
28 | > 287 µM |  | COCCCNC(=O)c1cc(S(N)(=O)=O)cnc1Sc1ccccc1
29 | 156 µM (≈ 54.8 µg/mL) |  | CCCNC(=O)c1cc(S(N)(=O)=O)cnc1Sc1ccccc1
30 | 214 µM (≈ 97 µg/mL) | 124 µM (≈ 56.2 µg/mL) | COCCCNC(=O)c1cc(S(N)(=O)=O)cnc1Sc1c(F)c(F)cc(F)c1F
31 | > 265 µM | 3090 µM (≈ 1400 µg/mL) | NCCCCNC(=O)c1cc(S(N)(=O)=O)cnc1Sc1c(F)c(F)cc(F)c1F
32 | < 19 µM |  | COc1ccc(CCCNC(=O)c2cc(S(N)(=O)=O)cnc2Sc2c(F)c(F)cc(F)c2F)cc1
